Literature values in patent publication US8383697B2 (priority 2009, dated 2013).

Legend:
[1] = system: rats; settings: in vivo
[2] = in vivo

Structure (SMILES) | Rat Oral LD50 [1] | LD50 [2]
CC(C)(C)OOC(=O)c1ccccc1 [Initiator XI, tert-butyl peroxybenzoate] | 4,160 mg/kg | 
O=C(OOC(=O)c1ccccc1)c1ccccc1 [Initiator VII, benzoyl peroxide] | 7,710 mg/kg | 
CCCCCCCCCCCC(=O)OOC(=O)CCCCCCCCCCC [Initiator VIII, lauroyl peroxide] | 10,000 mg/kg | 
CC(C)(C)OOC(C)(C)C [Initiator X, tert-butyl peroxide] | 25,000 mg/kg | 
CCO [ethanol] |  | 7060 mg/kg
